Data set [1] can be described thus: Measurement of solubility in xylene. In kind it is physicochemical. To be noted: for solubility: result in words; for solubility / Solubility (xylene): solvent xylene. Here is the method: (§1) The glass transition temperature (Tg) and solubility of Compounds 1-5, 1-23, 1-24, and 1-79 were measured. In measuring the solubility, xylene was used as a solvent. The glass transition temperature (Tg) and solubility of each compound is written under each compound number.

Data set [2] can be described thus: Measurement of glass transition temperature (Tg), scanning calorimetry, JIS K 7121, SII DSC6220. In kind it is physicochemical. To be noted: for heat resistance: result in words, from Tg. As for the experimental part: The glass transition temperature may be measured by a method defined in JIS K 7121 or ISO 3146 corresponding thereto. In the following examples, the glass transition temperature was measured by a scanning calorimetric measurement method.
In an argon atmosphere, 2.20 g (5.52 mmol) of Intermediate a, 3.30 g (4.97 mmol) of Intermediate b, 0.078 g (0.11 mmol) of dichlorobis(triphenylphosphine)dipalladium, 55 mL of dioxane, and 28 mL of a 0.5 N sodium carbonate aqueous solution were added to a reaction vessel, and the mixture was stirred at a temperature of 90° C. for 8 hours. After the reaction was completed, the resultant mixture was cooled to room temperature and filtered by using celite. An organic layer obtained therefrom was concentrated and purified by column chromatography, thereby completing the preparation of Compound 1-7 (synthesized amount: 2.97 g, yield: 69.9%) (the structure thereof was identified by LC-MS). A measurement of a glass transition temperature (Tg) was performed based on JIS K 7121 by using SII DSC6220 (manufactured by Seiko Instruments Inc.).
as §1

A value given as a limit tells only on which side of the number the result lay.

Experimental findings from patent US10597403B2, “Condensed cyclic compound, composition including the condensed cyclic compound, organic light-emitting device including the condensed cyclic compound, and method of manufacturing the organic light-emitting device” (SAMSUNG ELECTRONICS CO., LTD., priority 2015, dated 2020) are described below.

Consider `c1ccc(-c2cc(-c3ccccc3)cc(-c3cccc(-c4cc(-c5ccccc5)nc(-c5cccc(-c6cccc7c6c6cc(-c8ccccc8)ccc6n7-c6ccccc6)c5)n4)c3)c2)cc1` [Compound 1-5], for which the solubility result in data set [1] was “excellent”. Further, in data set [2], the heat resistance result was “excellent”.
As for `c1ccc(-c2cc(-c3ccccc3)cc(-c3cccc(-c4nc(-c5ccccc5)nc(-c5cccc(-c6cccc7c6c6cc(-c8ccccc8)ccc6n7-c6ccccc6)c5)n4)c3)c2)cc1` [Compound 1-7], the “Solubility (xylene)” value in data set [1] was over 10 wt %. In addition, the “soluble in a hydrocarbon-based solvent” value in data set [1] (toluene or xylene) is on record as “soluble”.
On to `c1ccc(-c2cc(-c3ccccc3)cc(-c3cccc(-n4c5ccccc5c5cc(-c6ccc7c(c6)c6cc(-c8ccccc8)ccc6n7-c6ccccc6)ccc54)c3)c2)cc1` [Compound 6-5], for which, in data set [1], the “Solubility (xylene)” value was over 10 wt %. For the same compound, the “Tg (glass transition temperature)” value in data set [2] (JIS K 7121, SII DSC6220) is 156.6 °C.
As for `c1ccc(-c2cc(-c3ccccc3)cc(-c3cccc(-c4nc(-c5ccccc5)nc(-c5cccc(-c6ccc7c(c6)c6cc(-c8ccccc8)ccc6n7-c6ccccc6)c5)n4)c3)c2)cc1` [Compound 1-79], the solubility entry in data set [1] was “excellent”. The heat resistance result in data set [2] was “excellent”.
